Measured values taken from paper PMC7041945, “Misfolded proteins bind and activate death receptor 5 to trigger apoptosis during unresolved endoplasmic reticulum stress” (eLife, 2020).
Residues, ends and D or L forms follow the SMILES beside them. *: point of attachment. Cbz = O=C(OCc1ccccc1)*; CH2F = FC*

Assays:
DR5 ECD = experiment: Peptide array binding of Fc-tagged DR5 ectodomain (MPZ and RHO sequences; amino acid enrichment); design: species or system human; settings: rhodopsin EL1-EL3 peptide array; for Corrected rawintden - min: min subtracted; for normalized (binding intensity): normalized from corrected rawintden - min
Protocol: Peptide arrays were purchased from the MIT Biopolymers Laboratory as described previously in [Karagöz et al. (2017)] and [Gardner and Walter (2011)]. The sequences of each protein were tiled from N- to C-terminus in 18-amino-acid-long peptides shifting by three amino acids from the previous spot. The arrays were incubated in methanol for 10 min, and then washed in binding buffer (50 mM HEPES pH 7.2, 250 mM NaCl, 10% glycerol) for 10 min at room temperature x 3. 500 nM of Fc-tagged DR5 extracellular domain (ECD, a kind gift from Scot Marsters) was incubated with the array in binding buffer at room temperature for 1 hr. Then, the array was washed three times for 10 min with binding buffer to remove unbound protein. The bound DR5 ECD was then transferred onto a nitrocellulose membrane via a semi-dry transfer apparatus (Owl HEP-1) at 80 mA for 45 min at 4°C. The membrane was then blocked with 1xPBST with 5% milk for 1 hr at room temperature and probed with 1:1000 anti-Fc (One World Lab #603–510) overnight at 4°C followed by 1:10000 anti-mouse IgG-HRP (Promega #W4021) for 1 hr at RT. The membrane was imaged using chemi-luminescence with the Bio-Rad Universal Hood II Gel Doc below saturating pixel intensities. The signal of each spot was quantified using Max Quant and normalized to the maximum intensity of all the spots on the same array.

[1] = system: caspase 8 in HCT116 lysates; experiment: Caspase 8 activity (caspase glo 8) of cell lysates / IP inputs; assay type: cell-based, Homo sapiens; settings: for average fold change relative to empty: HCT116, rep 1, average of 4 dilutions; for norm RLUs: rep 2, normalized by lysate quant
Protocol: Cells harvested from a 6-well plate were resuspended in 100 μl of lysis buffer (30 mM HEPES pH 7.2, 150 mM NaCl, 1% Triton X-100) and lysed via needle shearing (25G, 10 passes) followed by a 30 min incubation on ice. Supernatant was collected after centrifuging at 1000xg for 5 min. For the caspase activity assay, 10 μl of supernatant diluted with lysis buffer (1:25, 1:50, 1:100 to stay within linear range of luminescence measurements) was incubated with 10 μl of the luminogenic caspase glo 8 substrate (Promega #PRG8200) in a 384-white walled plate (Corning 3574) for 45 min at RT before measuring luminescence on a Spectramax-M5 plate reader.

HCT116 cells = experiment: Annexin V (and SytoxBlue) flow cytometry for apoptosis; assay type: cell-based, Homo sapiens; settings: for Annexin V +, Sytox Blue + cells / Annexin V +, Sytox Blue - cells / Annexin V -, Sytox Blue - cells: transfected 24 hr, no z-VAD
Protocol: Cells seeded in a 6-well plate were transfected with the specified plasmid for 24 hr and harvested via trypsinization in complete media to allow a 30 min recovery at 37°C. The samples were then centrifuged at 500xg for 5 min and resuspended In 150 μl of a 1:20 dilution of Annexin V-AlexaFluor 647 conjugate (Thermo Scientific #A23204). Samples were transferred to a 96-well U-bottom plate and incubated in the dark for 15 min at RT. The distribution of apoptotic cells was determined by flow cytometry on a BD LSR II.

[2] = system: DR5 / ERGIC53 / giantin in HCT116 cells; experiment: Immunofluorescence co-localization (Pearson's correlation per cell); assay type: cell-based, Homo sapiens; settings: for Pearson's correlation per cell of GFP-tagged peptide with DR5 / Pearson's correlation per cell of GFP-tagged peptide with ERGIC: HCT116, 24 hr post-transfection; for Pearson's correlation per cell of GFP-tagged peptide with DR5 / Pearson's correlation per cell of GFP-tagged peptide with ERGIC / Pearson's correlation per cell between DR5 and ERGIC: Mean ± SEM; for Pearson's correlation per cell between DR5 and ERGIC: HCT116 expressing GFP-tagged peptide, 24 hr
Protocol: HCT116 were seeded at 25000 cells per well in an 8-well glass-bottom μSlide (Ibidi 80827) pre-coated with Collagen IV (Sigma-Aldrich C6745, 0.03 mg/ml in PBS incubated for 30 min at RT, and then rinsed off with PBS x 3) in growth media 18 hr prior to transfection (see above for protocol). 24 hr post-transfection, the cells were fixed using 4% paraformaldehyde (PFA, Electron Microscopy Sciences) or methanol, depending on the antibody combination used for immunostaining (see table below). Samples were protected from light after fixation to preserve GFP fluorescence.
For fixation with 4% PFA, 32% PFA was added directly to the well in growth media for a 1:8 dilution and incubated for 10–15 min at RT. Cells were then permeabilized with PHEM buffer (60 mM PIPES, 25 mM HEPES, 10 mM EGTA, 2 mM MgCl2-hexahydrate, pH 6.9) containing 0.1% Triton-X100 for 10 min at RT for three washes.
For fixation with methanol, media was removed and cells were washed with cold PBS. Then methanol (pre-cooled at −20°C) was added to the well and incubated at −20°C for 3–4 min. The methanol was promptly aspirated and replaced with PHEM buffer (without Triton X-100), followed by two more 10 min washes with PHEM at RT.
To block against non-specific antibody interactions, cells were rinsed in PHEM (without 0.1% Triton X-100) and then incubated with PHEM containing 2% normal goat serum (Jackson Immunoresearch Laboratories, 005-000-121) for 1 hr at RT. Primary antibodies were incubated in blocking solution overnight at 4°C at the dilution noted in the table above. Cells were then washed with PHEM buffer for 10 min at RT x three and incubated with secondary antibodies, anti-mouse-AlexaFluor546 (Invitrogen A11030) and anti-rabbit-AlexaFluor633 (Invitrogen A21071), diluted 1:1000 in PHEM with 2% normal goat serum. (Secondary antibody solutions were centrifuged at 15000xg for 20 mins at 4°C to remove aggregates prior to incubating with cell samples.) After a 1 hr incubation at RT, cells were washed with PHEM buffer once, then incubated with PHEM buffer containing nuclear stain (DAPI, Molecular Probes, Eugene, OR, D-1306, 5 μg/mL), and finally rinsed with PHEM buffer twice before imaging.
Samples were imaged on a spinning disk confocal with Yokogawa CSUX A1 scan head, Andor iXon EMCCD camera, and 40x Plan Apo air Objective NA 0.95 or 100x ApoTIRF objective NA 1.49 (Nikon).
From the 405 nm channel, cell nuclei were identified as primary objects using maximum correlation thresholding (MCT) and shape to distinguish clumped objects. Secondary objects were outlined using propagation from the nuclei (DAPI) after applying MCT from the 488 nm, 561 nm, and 633 nm channels. Tertiary objects for each cell was identified as the mask of each nucleus subtracted from the mask of its corresponding secondary object in each channel, yielding masks for intracellular GFP-tagged protein from the 488 nm channel, for intracellular DR5 from the 561 nm channel, and for the organelle marker in the 633 nm channel. For overlap between DR5 and MPZ/RHO-GFP, Pearson’s correlation coefficients were calculated within the MPZ/RHO mask for each cell to filter out untransfected cells. For overlap between DR5/MPZ and organelle markers, Pearson’s correlation coefficients were calculated within tertiary objects for the organelle marker in GFP+ cells. Statistical analyses for all data sets were performed using GraphPad Prism 6.0.

Molecule | Corrected rawintden - min (DR5 ECD) | normalized (binding intensity) (DR5 ECD) | other results
ESTHQGSNFMNGTEGPNF | 320074 | 0.07803 | 
SCGIDYYTLKPEVNNEST | 1488599 | 0.3629 | 
INS1 |  |  | average fold change relative to empty ([1]; siDR5): 1.524 fold change; average fold change relative to empty ([1]; siNT): 2.0013 fold change
TEGPNFYVPFSNVTGVVR | 1182345 | 0.2883 | 
YVPFSNVTGVVRSPFEQP | 640840 | 0.1562 | 
HQGSNFMNGTEGPNFYVP | 360135 | 0.0878 | 
EQPQYYLAEPWQLHGYFV | 507200 | 0.1237 | 
SNFMNGTEGPNFYVPFSN | 337810 | 0.08236 | 
FSNVTGVVRSPFEQPQYY | 470277 | 0.1147 | 
insGFP |  |  | norm RLUs ([1]; dilution 0.025): 1827.1 RLUs; norm RLUs ([1]; dilution 0.05): 3654.19 RLUs; norm RLUs ([1]; dilution 0.1): 8264.86 RLUs
QYYLAEPWQLHGYFVFGP | 996384 | 0.2429 | 
PWQLHGYFVFGPTGCNLE | 1093768 | 0.2667 | 
LAEPWQLHGYFVFGPTGC | 890759 | 0.2172 | 
FTWREQPEGGRDAISIFHEA [MPZ-ecto peptide^Tyr→Glu-eGFP, expressed GFP-tagged construct with Tyr → Glu mutations in the MPZ-ecto peptide] |  |  | Annexin V +, Sytox Blue + cells (HCT116 cells): 5.66% of cells; Annexin V +, Sytox Blue - cells (HCT116 cells): 3.64% of cells; Annexin V -, Sytox Blue - cells (HCT116 cells): 90.3% of cells; Pearson's correlation per cell of GFP-tagged peptide with DR5 [2]: 0.15 ± 0.03; Pearson's correlation per cell of GFP-tagged peptide with ERGIC [2]: 0.22 ± 0.05; Pearson's correlation per cell between DR5 and ERGIC [2]: 0.44 ± 0.04
NLERYIPEGMQCSCGIDY | 395368 | 0.09639 | 
CC(NC(=O)C(NC(=O)OCc1ccccc1)C(C)C)C(=O)NC(CC(=O)O)C(=O)CF (stereo not drawn) [zVAD, reference compound] (Cbz-Val-Ala-Asp-CH2F; configuration not given here) |  |  | annexin V staining with pan-caspase inhibitor (HCT116 cells; cells expressing MPZ-ecto peptide): diminished the extent of annexin V staining
KPEVNNESTHQGSNFMNG | 941789 | 0.2296 | 
YFVFGPTGCNLERYIPEG | 490636 | 0.1196 | 
ETEREQPEGGRDAISIEHEA [MPZ-ecto peptide^Arom→Glu-eGFP, expressed GFP-tagged construct with all aromatic residues of the MPZ-ecto peptide mutated to Glu] |  |  | Annexin V +, Sytox Blue + cells (HCT116 cells): 8.17% of cells; Annexin V +, Sytox Blue - cells (HCT116 cells): 4.89% of cells; Annexin V -, Sytox Blue - cells (HCT116 cells): 86.5% of cells; Pearson's correlation per cell of GFP-tagged peptide with DR5 [2]: 0.27 ± 0.03; Pearson's correlation per cell of GFP-tagged peptide with ERGIC [2]: 0.25 ± 0.03; Pearson's correlation per cell between DR5 and ERGIC [2]: 0.50 ± 0.03
RYIPEGMQCSCGIDYYTL | 1340468 | 0.3268 | 
TGCNLERYIPEGMQCSCG | 1149984 | 0.2804 | 
PNFYVPFSNVTGVVRSPF | 624655 | 0.1523 | 
DR5 siRNA: siRNA oligonucleotides against DR5 (Dharmacon L-004448-00-0005) (guide AAGACCCUUGUGCUCGUUGUCUU; further chemistry not given here) [reference compound] |  |  | PARP cleavage and annexin V staining after DR5 knockdown (HCT116 cells; DR5 siRNA 48 hr, then MPZ-GFP overexpression 24 hr): significantly reduced PARP cleavage and annexin V staining; DR5 immunofluorescence signal ([2]; siRNA 48 hr, MPZ-GFP 24 hr): eliminated the DR5 signal

Second part, led by results:

Corrected rawintden - min (DR5 ECD) | normalized (binding intensity) (DR5 ECD) | Molecule | other results
1701232 | 0.4148 | MQCSCGIDYYTLKPEVNN | 
1657676 | 0.4041 | PEGMQCSCGIDYYTLKPE | 
375649 | 0.09158 | VVRSPFEQPQYYLAEPWQ | 
402567 | 0.09815 | VTGVVRSPFEQPQYYLAE | 
294091 | 0.0717 | VNNESTHQGSNFMNGTEG | 
870062 | 0.2121 | YTLKPEVNNESTHQGSNF | 
1420533 | 0.3463 | IDYYTLKPEVNNESTHQG | 
827091 | 0.2016 | MNGTEGPNFYVPFSNVTG | 
1142815 | 0.2786 | LHGYFVFGPTGCNLERYI | 
517083 | 0.1261 | SPFEQPQYYLAEPWQLHG | 
1562181 | 0.3809 | FGPTGCNLERYIPEGMQC | 
